Experiments:
[1] = system: HER2 high-expressing cancer cells SK-BR-3; test: Cytotoxicity assay (CellTiter-Glo cell viability), SK-BR-3; format: cell-based; details: SK-BR-3, 120 h treatment
Procedure: (§1) Cytotoxicity assays were performed using HER2 high-expressing cancer cells SK-BR-3 (FIG. 1) and NCI-N87 (FIG. 2), HER2 low-expressing cancer cells CFPAC-1 (FIG. 3) and NCI-H2110 (FIG. 4), as well as a HER2 negative cell line MDA-MB-468 (FIG. 5) to analyze the effect of conjugates on tumor cell proliferation. […] In brief, 3000 to 5000 cells were plated in 96-well plates, and cells were able to attach overnight. Cells were treated with indicated drugs with various concentrations for 120 h. Cell viabilities were examined by CellTiter-Glo® Luminescent Cell Viability Assay, and percentage of cell viability was calculated.

[2] = system: HER2 high-expressing cancer cells NCI-N87; test: Cytotoxicity assay (CellTiter-Glo cell viability), NCI-N87; format: cell-based; details: NCI-N87, 120 h treatment
Procedure: as §1

CC[C@@]1(O)C(=O)OCc2c1cc1n(c2=O)Cc2c-1nc1cc(F)c(C)c3c1c2[C@@H](NC(=O)CO)CC3 [compound 10]
IC50 [1]: 1.47 nM | IC50 [2]: 4.68 nM

From patent US11826432B2, “Linkers, conjugates and applications thereof” (priority 2021, dated 2023)
